Assay results from patent publication US12693289B2, “Application of compounds in the preparation of reagents for down-regulation of RUNX2” (Geneheal Biotechnology Co., Ltd., priority 2020, dated 2026).

Experiments:
RUNX2 [1] = assay: RUNX2 protein expression by Western blot in lung cancer cells A549; type: cell-based
Description: (§1) Cells are seeded in medium dishes (6 cm), cultured overnight, when the cell confluency is 80%, the original medium is discarded, PBS rinses the cells, and then replaced with Fostamatinib containing a final concentration of 10 uM or other concentrations, after 6-12 hours, the cells are harvested, RNA and protein liquid are extracted, and the protein and mRNA expression changes of RUNX2 are detected by Western blot and qPCR experiments, respectively.

RUNX2 [2] = assay: Computational studies and preliminary experimental studies of related disease models: Runx2 expression; conditions: general statement
RUNX2 mRNA [3] = assay: RUNX2 mRNA expression by qPCR in lung cancer cell H1299; type: cell-based; conditions: H1299 cells
Description: as §1

RUNX2 [4] = assay: RUNX2 protein expression by Western blot in hepatoma cells BEL-7402; type: cell-based; conditions: BEL-7402 cells, 0, 2.5, 5 and 10 uM for 6 h, FIG. 5
Description: as §1

RUNX2 mRNA [5] = assay: RUNX2 mRNA expression by qPCR in lung cancer cells A549; type: cell-based
Description: as §1

RUNX2 mRNA [6] = assay: Animal testing (intraperitoneal injection): RUNX2 mRNA in mouse liver tissue by qPCR; type: in vivo, C57BL/6 male mice; conditions: mice, 40 mg/kg intraperitoneal injection, 4 consecutive days, liver collected 48 hours after last injection, FIG. 6
Description: • Drug: Fostamatinib MCE(HY-13038A) • Mice: 8-week-old C57BL/6 male mice • Concentration of administration: 40 mg/kg • Mode of administration: intraperitoneal injection
Experimental steps: mice are randomly divided into two groups, experimental group (fostamatinib) and control group (mock), before daily experiments, a certain amount of fostamatinib is accurately weighted and dissolve in 0.5% CMC ([…] cellulose), fully pipetted into a uniform suspension, the concentration of 4 mg/ml, and ready for use. According to the injection volume of 100 ul/10 g per mouse, the intraperitoneal injection was carried out for 4 consecutive days. The mouse liver tissue was collected 48 hours after the last injection, RNA was extracted, and the mRNA expression level of RUNX2 was detected by real-time fluorescence quantitative PCR (qPCR).

RUNX2 [7] = assay: RUNX2 protein expression by Western blot in lung cancer cell H1299; type: cell-based; conditions: H1299 cells
Description: as §1

[8] = treated 6 hours, antibody changed, FIG. 3
[9] = treated 8 hours, Fostamatinib 10 uM or other concentrations, FIG. 1
[10] = treated 8 hours, Fostamatinib 10 uM or other concentrations, FIG. 2

SMILES | protein expression level of RUNX2 (RUNX2 [1]; [8]) | protein expression level of RUNX2 (RUNX2 [1]; [9]) | expression of Runx2 (RUNX2 [2]) | mRNA level of RUNX2 (RUNX2 mRNA [3]; 6 hours, FIG. 4) | mRNA expression level of RUNX2 (RUNX2 mRNA [3]; [10]) | expression level of RUNX2 protein (RUNX2 [4]) | mRNA level of RUNX2 (RUNX2 mRNA [5]; 6 hours, FIG. 4) | mRNA expression level of RUNX2 (RUNX2 mRNA [5]; [10]) | mRNA expression level of RUNX2 in liver tissue (RUNX2 mRNA [6]) | protein expression level of RUNX2 (RUNX2 [7]; [8]) | protein expression level of RUNX2 (RUNX2 [7]; [9])
COc1cc(Nc2ncc(F)c(Nc3ccc4c(n3)N(COP(=O)(O)O)C(=O)C(C)(C)O4)n2)cc(OC)c1OC [Fostamatinib] | down-regulated a certain trend | tends to decrease | significantly down-regulate | significantly reduced | decreases significantly | significantly reduced and dose-dependent | significantly reduced | decreases significantly | significantly reduce | down-regulated a certain trend | tends to decrease
COc1ccc2[nH]cc(CCNC(C)=O)c2c1 [melatonin, Melatonin] | – | – | significantly down-regulate | – | – | – | – | – | – | – | –
CNC(=O)c1cc(Oc2ccc(NC(=O)Nc3ccc(Cl)c(C(F)(F)F)c3)c(F)c2)ccn1 [Regorafenib] | – | – | significantly down-regulate | – | – | – | – | – | – | – | –
